Data: patent publication US20240216410A1, “METHODS AND COMPOSITIONS FOR TREATING CANCER THERAPY-INDUCED NEUTROPENIC FEVER AND/OR GVHD” (BOARD OF REGENTS, THE UNIVERSITY OF TEXAS SYSTEM, priority 2021, published 2024)
“Also recorded” adds a separate entry of the source.

Experiments:
[1] = system: colonic mucus layer; experiment: Murine GVHD model: colonic mucus layer thickness (PAS staining); type: in vivo, mice; conditions: day 18; vs untreated GVHD mice and syngeneic mice
Method: Next, assessed was the impact of meropenem treatment on the dense colonic mucus layer of mice with GVHD.
Allo-HSCT recipient mice were treated with meropenem as in FIG. 15A and with xylose from days 13 to 20 (FIG. 18F). […] Importantly, in vitro, growth of mouse and human-derived BT in carbohydrate-poor media was augmented by xylose (FIG. 23B).
Xylose administration. D-(+)-xylose (X3877, SIGMA-ALDRICH®) was dissolved in phosphate buffer pH 8.0 with meropenem or in water without meropenem and given at a concentration of 0.5% from days 13 to 20 after allo-HSCT.
Histological and immunohistochemistry analysis. […] Pathology scores were quantified by a blinded pathologist. […] Sections were imaged using an APERIO® AT2.

[2] = type: in vivo, mice
Method: The mucus layer provides a critical contribution to the intestinal barrier by excluding bacteria from the intestinal lumen adjacent to the intestinal epithelium. […] Translocating bacteria included Enterococcus faecalis, Enterococcus gallinarum, Lactobacillus johnsonii, and BT (FIGS. 17D-17E).
Immunostaining and fluorescence in situ hybridization. […] Paraffin-embedded sections were dewaxed and hydrated. Sections were incubated with 1 μg Alexa Fluor 594-conjugated EUB338 (5′-[…]-3′; SEQ ID NO:1) for detection of all bacteria in 200 μL of hybridization buffer (750 mM NaCl, 100 mM Tris-HCl (pH 7.4), 5 mM EDTA, 0.01% BSA, 10% dextran sulfate) at 40° C. for 16 hours. Sections were rinsed in wash buffer (50 mM NaCl, 4 mM Tris-HCl (pH 7.4), 0.02 mM EDTA), washed at 45° ° C. for 20 min, stained with anti-Muc2 antibody [C3] (GTX100664, GeneTex) and counterstained with DAPI (Vector Laboratories). Photographs of sections were obtained using a fluorescent microscope (Nikon NIS Elements, Advanced Research version 4.20).
Microbiologic analysis of bacterial translocation. Mesenteric lymph nodes (MLNs) were harvested from mice and homogenized in PBS and cultured anaerobically on BHI plates containing yeast extract and 5% sterilized rumen fluid (THERMO FISHER […]™)) and Columbia blood agar plates (BD) for 4 days at 37° ° C. Colony-forming units (CFUs) were counted and adjusted per organ. […]

[3] = Murine GVHD model: fecal SCFAs by IC-MS; type: in vivo; conditions: day 18; meropenem-treated allo-HSCT mice
Source text: In some cases, meropenem-induced intestinal dysbiosis contributes to aggravated GVHD via loss of beneficial commensal bacteria. In some embodiments, meropenem-treated allogeneic mice show a loss of Clostridia abundance and a reduction in SCFA levels, including butyrate. On day 7, or 4 days following the start of meropenem treatment, Clostridia were depleted in meropenem-treated mice and remained so at 6 days after stopping 5 meropenem (FIG. 20A).
Short Chain Fatty Acids profiling by ion chromatography-mass spectrometry (IC-MS). To determine the relative abundance of short chain fatty acids in mouse feces samples, extracts were prepared and analyzed by ultra-high resolution mass spectrometry (HRMS). Fecal pellets were homogenized with a […]® Tissue Homogenizer. Metabolites were extracted using 1 mL ice-cold 0.1% Ammonium hydroxide in 80/20 (v/v) methanol/water. Extracts were centrifuged at 17,000 g for 5 min at 4° C., and supernatants were transferred to clean tubes, followed by evaporation to dryness under nitrogen. Dried extracts were reconstituted in deionized water, and 5 μL was injected for analysis by IC-MS. IC mobile phase A (MPA; weak) was water, and mobile phase B (MPB; strong) was water containing 100 mM KOH. A THERMO […]™ DIONEX™ ICS-5000+ system included a THERMO FISHER […]™ IONPAC™ AS11 column ([…], 250×2 mm) with column compartment kept at 30° C. […]

[4] = system: intestinal microbiota; experiment: Fecal bacterial density by 16S rRNA gene qPCR in normal mice given meropenem in drinking water; type: in vivo; conditions: 0.625 g/L meropenem in drinking water
Method: To further explore a potential causal relationship between meropenem and intestinal GVHD, the effects of meropenem on GVHD in a mouse model of allo-HSCT were examined. A method of administering meropenem to mice was first developed that would better mimic the effects of meropenem on the intestinal microbiome of patients, which is typically given every 8 hours intravenously. Previously, antibiotics were administered subcutaneously to mice (25), and meropenem concentrations were quantified in the cecal lumen of mice 4, 8, 24, 48 and 96 hours after subcutaneous injection. […] Next, drinking water was evaluated as a means of continuously administering meropenem to mice, using bacterial density quantified by 16S ribosomal RNA (16S rRNA) gene quantitative PCR (qPCR) to gauge reductions of the intestinal microbiota.
Quantification of fecal bacterial density. Genomic DNA was isolated from stool as described above. qPCR was performed as previously described (66). In brief, 16S rRNA gene sequences were amplified from total fecal DNA using the primers 926F (5′-[…]-3′, where K is a G or a T; SEQ ID NO:2) and 1062R (5′-[…]-3′, where R is an A or a G; SEQ ID NO:3). […] To determined bacterial density, a plasmid with a 16S rRNA gene of a murine Blautia isolate was generated in the pCR4 backbone and used as a standard.

## C[C@@H](O)[C@H]1C(=O)N2C(C(=O)O)=C(S[C@@H]3CN[C@H](C(=O)N(C)C)C3)[C@H](C)[C@H]12 [meropenem]
[1]
  colonic mucus layer thickness: significantly thinned colonic mucus layer
[2]; day 18
  bacterial loads cultivated from MLNs: higher bacterial loads
[2]; mice with GVHD
  bacteria in mucus layer and lamina propria (16S FISH): dissemination of bacteria into the mucus layer and lamina propria of the colon
[3]
  fecal levels of SCFAs: significantly decreased; also recorded: reduced fecal levels of SCFAs, with particularly dramatic reductions in butyrate and valerate
[4]
  reduction in fecal bacterial density: substantial one-log reduction in fecal bacterial density
